Data taken from PubChem BioAssay (NCI).
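48-hour exposure; five concentrations; linearly interpolated endpoints. GI50 = concentration required for 50% inhibition of growth. TGI denotes the concentration required for complete inhibition of growth.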

Columns and labels:
Assay in all cases: NCI-60 cell line screen, 48 h
786-0 renal = system: 786-0 renal
A498 renal = system: A498 renal
A549 NSCLC = system: A549 NSCLC
ACHN renal = system: ACHN renal
BT-549 breast = system: BT-549 breast
CAKI-1 renal = system: CAKI-1 renal
CCRF-CEM leukemia = system: CCRF-CEM leukemia
COLO 205 colon = system: COLO 205 colon
DU-145 prostate = system: DU-145 prostate
EKVX NSCLC = system: EKVX NSCLC
HCC-2998 colon = system: HCC-2998 colon
HCT-116 colon = system: HCT-116 colon
HCT-15 colon = system: HCT-15 colon
HL-60(TB) leukemia = system: HL-60(TB) leukemia
HOP-62 NSCLC = system: HOP-62 NSCLC
HOP-92 NSCLC = system: HOP-92 NSCLC
HS 578T breast = system: HS 578T breast
HT29 colon = system: HT29 colon
IGROV1 ovarian = system: IGROV1 ovarian
K-562 leukemia = system: K-562 leukemia
KM12 colon = system: KM12 colon
LOX IMVI melanoma = system: LOX IMVI melanoma
M14 melanoma = system: M14 melanoma
MALME-3M melanoma = system: MALME-3M melanoma
MCF7 breast = system: MCF7 breast
MDA-MB-231 breast = system: MDA-MB-231 breast
MDA-MB-435 = system: MDA-MB-435
MOLT-4 leukemia = system: MOLT-4 leukemia
NCI-H226 lung = system: NCI-H226 lung
NCI-H23 lung = system: NCI-H23 lung
NCI-H460 lung = system: NCI-H460 lung
NCI-H522 lung = system: NCI-H522 lung
NCI/ADR-RES ovarian = system: NCI/ADR-RES ovarian
OVCAR-3 ovarian = system: OVCAR-3 ovarian
OVCAR-4 ovarian = system: OVCAR-4 ovarian
OVCAR-5 ovarian = system: OVCAR-5 ovarian
OVCAR-8 ovarian = system: OVCAR-8 ovarian
PC-3 prostate = system: PC-3 prostate
RPMI-8226 leukemia = system: RPMI-8226 leukemia
RXF 393 renal = system: RXF 393 renal
SF-268 CNS = system: SF-268 CNS
SF-295 CNS = system: SF-295 CNS
SF-539 CNS = system: SF-539 CNS
SK-MEL-2 melanoma = system: SK-MEL-2 melanoma
SK-MEL-28 melanoma = system: SK-MEL-28 melanoma
SK-MEL-5 melanoma = system: SK-MEL-5 melanoma
SK-OV-3 ovarian = system: SK-OV-3 ovarian
SN12C renal = system: SN12C renal
SNB-19 CNS = system: SNB-19 CNS
SNB-75 CNS = system: SNB-75 CNS
SR leukemia = system: SR leukemia
SW-620 colon = system: SW-620 colon
T-47D breast = system: T-47D breast
TK-10 renal = system: TK-10 renal
U251 CNS = system: U251 CNS
UACC-257 melanoma = system: UACC-257 melanoma
UACC-62 melanoma = system: UACC-62 melanoma
UO-31 renal = system: UO-31 renal

CN1CCN(Cc2ccc(NC(=O)c3cncc(C#Cc4ncc5ccccn45)c3)cc2C(F)(F)F)CC1
GI50 (786-0 renal): 3 µM
TGI (786-0 renal): 6.4 µM
GI50 (A498 renal): 2.83 µM
TGI (A498 renal): 5.96 µM
GI50 (A549 NSCLC): 1.35 µM
TGI (A549 NSCLC): 5.48 µM
GI50 (ACHN renal): 0.967 µM
TGI (ACHN renal): 3.8 µM
GI50 (BT-549 breast): 1.98 µM
TGI (BT-549 breast): 5.03 µM
GI50 (CAKI-1 renal): 0.913 µM
TGI (CAKI-1 renal): 3.99 µM
GI50 (CCRF-CEM leukemia): 0.962 µM
TGI (CCRF-CEM leukemia): 8.3 µM
GI50 (COLO 205 colon): 0.561 µM
TGI (COLO 205 colon): 1.39 µM
GI50 (DU-145 prostate): 1.35 µM
TGI (DU-145 prostate): 4.51 µM
GI50 (EKVX NSCLC): 1.3 µM
TGI (EKVX NSCLC): 5.54 µM
GI50 (HCC-2998 colon): 3.37 µM
TGI (HCC-2998 colon): 6.99 µM
GI50 (HCT-116 colon): 0.674 µM
TGI (HCT-116 colon): 3.06 µM
GI50 (HCT-15 colon): 1.2 µM
TGI (HCT-15 colon): 7.4 µM
GI50 (HL-60(TB) leukemia): 0.845 µM
TGI (HL-60(TB) leukemia): 2.76 µM
GI50 (HOP-62 NSCLC): 1.45 µM
TGI (HOP-62 NSCLC): 4.77 µM
GI50 (HOP-92 NSCLC): 0.762 µM
TGI (HOP-92 NSCLC): 2.37 µM
GI50 (HS 578T breast): 0.688 µM
TGI (HS 578T breast): 3.61 µM
GI50 (HT29 colon): 0.827 µM
TGI (HT29 colon): 8.96 µM
GI50 (IGROV1 ovarian): 0.892 µM
TGI (IGROV1 ovarian): 4.07 µM
GI50 (K-562 leukemia): 0.0025 µM
TGI (K-562 leukemia): 2.91 µM
GI50 (KM12 colon): 0.0112 µM
TGI (KM12 colon): 2.9 µM
GI50 (LOX IMVI melanoma): 1.27 µM
TGI (LOX IMVI melanoma): 4.55 µM
GI50 (M14 melanoma): 1.01 µM
TGI (M14 melanoma): 3.98 µM
GI50 (MALME-3M melanoma): 0.772 µM
TGI (MALME-3M melanoma): 3.6 µM
GI50 (MCF7 breast): 0.738 µM
TGI (MCF7 breast): 3.07 µM
GI50 (MDA-MB-231 breast): 0.881 µM
TGI (MDA-MB-231 breast): 5.92 µM
GI50 (MDA-MB-435): 2.01 µM
TGI (MDA-MB-435): 5.23 µM
GI50 (MOLT-4 leukemia): 0.892 µM
TGI (MOLT-4 leukemia): 5.82 µM
GI50 (NCI-H226 lung): 0.451 µM
TGI (NCI-H226 lung): 3.91 µM
GI50 (NCI-H23 lung): 1.34 µM
TGI (NCI-H23 lung): 5.75 µM
GI50 (NCI-H460 lung): 1.02 µM
TGI (NCI-H460 lung): 3.86 µM
GI50 (NCI-H522 lung): 1.43 µM
TGI (NCI-H522 lung): 5.58 µM
GI50 (NCI/ADR-RES ovarian): 2.77 µM
TGI (NCI/ADR-RES ovarian): 16 µM
GI50 (OVCAR-3 ovarian): 2.43 µM
TGI (OVCAR-3 ovarian): 8.21 µM
GI50 (OVCAR-4 ovarian): 0.531 µM
TGI (OVCAR-4 ovarian): 4.57 µM
GI50 (OVCAR-5 ovarian): 1.76 µM
TGI (OVCAR-5 ovarian): 8.41 µM
GI50 (OVCAR-8 ovarian): 2.21 µM
TGI (OVCAR-8 ovarian): 5.42 µM
GI50 (PC-3 prostate): 1.27 µM
TGI (PC-3 prostate): 8.65 µM
GI50 (RPMI-8226 leukemia): 0.858 µM
TGI (RPMI-8226 leukemia): 4.15 µM
GI50 (RXF 393 renal): 1.09 µM
TGI (RXF 393 renal): 3.73 µM
GI50 (SF-268 CNS): 2.06 µM
TGI (SF-268 CNS): 7.22 µM
GI50 (SF-295 CNS): 1.35 µM
TGI (SF-295 CNS): 4.75 µM
GI50 (SF-539 CNS): 0.471 µM
TGI (SF-539 CNS): 1.91 µM
GI50 (SK-MEL-2 melanoma): 0.876 µM
TGI (SK-MEL-2 melanoma): 3.82 µM
GI50 (SK-MEL-28 melanoma): 2.82 µM
TGI (SK-MEL-28 melanoma): 6.19 µM
GI50 (SK-MEL-5 melanoma): 3.13 µM
TGI (SK-MEL-5 melanoma): 6.37 µM
GI50 (SK-OV-3 ovarian): 1.33 µM
TGI (SK-OV-3 ovarian): 4.58 µM
GI50 (SN12C renal): 1.26 µM
TGI (SN12C renal): 4.41 µM
GI50 (SNB-19 CNS): 3.09 µM
TGI (SNB-19 CNS): 8.44 µM
GI50 (SNB-75 CNS): 2.73 µM
TGI (SNB-75 CNS): 5.77 µM
GI50 (SR leukemia): 0.511 µM
TGI (SR leukemia): 1.41 µM
GI50 (SW-620 colon): 0.842 µM
TGI (SW-620 colon): 3.12 µM
GI50 (T-47D breast): 1.6 µM
TGI (T-47D breast): 6.76 µM
GI50 (TK-10 renal): 3.43 µM
TGI (TK-10 renal): 8.21 µM
GI50 (U251 CNS): 2.89 µM
TGI (U251 CNS): 6.39 µM
GI50 (UACC-257 melanoma): 1.44 µM
TGI (UACC-257 melanoma): 4.57 µM
GI50 (UACC-62 melanoma): 3.04 µM
TGI (UACC-62 melanoma): 6.76 µM
GI50 (UO-31 renal): 1.25 µM
TGI (UO-31 renal): 3.72 µM
